{"source": "patent US11607422B2", "about": "“Uttroside B and derivatives thereof as therapeutics for hepatocellular carcinoma” (Rajiv Gandhi Centre for Biotechnology, an Autonomous …, priority 2016, dated 2023)", "key": {"[1]": {"tested_on": "HeLa", "test": "MTT cell viability assay in HeLa cells", "format": "cell-based", "conditions": "72 h", "protocol": "FIG. 2A is a graph comparison of IC50 of Uttroside B in a panel of cancer cells of different origin. The cancer cell lines HeLa, A375, HepG2, MDA-MB-231, HL 60, A549 and HCT116 were treated with Uttroside B as indicated, incubated for 72 h and the cell viability was assessed by MTT assay. FIG. 2B is a graph showing dose dependent effect of Uttroside B in the liver cancer cell lines and in normal immortalized hepatocytes. The liver cancer cell lines HepG2, Hep3B, SKHEP-1, Huh-7 and normal hepatocytes (Chang liver), were treated with Uttroside B incubated for 72 h and the cell viability was assessed by MTT assay. FIG. 2C is a graph comparison of IC50 of Uttroside B with sorafenib. HepG2 cells were treated with Uttroside B as indicated, incubated for 72 h, and the cell viability was assessed by MTT assay. […] The clones developed were counted and plotted as a graph. Colony containing more than four cells was counted as one clone. […]\nMTT [3-(4,5-dimethylthiazole-2-yl)-2,5-diphenyltetrazolium bromide] assay is a standard colorimetric assay, suitable for analyzing proliferation, viability, and cytotoxicity. […] After overnight incubation, cells were treated with different concentrations of organic extracts (25-250 μg/ml) of S. nigrum and the isolated compound Uttroside B (250-1250 nM) for 72 h and cytotoxicity was measured. […]"}, "[2]": {"tested_on": "HepG2 xenograft tumors", "test": "HepG2-xenograft model in NOD-SCID mice", "format": "in vivo", "protocol": "Our next attempt was to validate the anticancer potential of Uttroside B against hepatic cancer, using an in vivo HepG2-xenograft model in NOD-SCID mice. The HepG2 cells suspended in matrigel were subcutaneously injected in the flank region of the mice. The study has been schematically represented in FIG. 6A. Uttroside B, dissolved in PBS, was administered after 15 days of tumor cell implantation when the tumor attained a size of 50-100 mm^3 approximately. Uttroside B (10 mg/kg bw) was injected intraperitoneally, thrice weekly for four weeks. […] The size of the tumor was measured using Vernier calipers every week and the corresponding tumor volume was calculated. […] However, upon sacrifice, very small tumors were observed beneath the skin of animals treated with Uttroside B too, though the size was drastically less compared to that of control animals [FIG. 6B-6C]. […] Although this study was in a mouse the skilled artisan knows that that dose may be converted to human equivalent dosage by simple math. For example the 10 mg/kg body weight for a mouse would convert to a 0.8 mg/kg body weight for a human and result in a range from 0.05 to 1.2 mg/kg body weight.\nIn vivoHepG2-Xenograft model: All animal studies were performed in accordance with the protocols approved by Institute Animal Ethical Committee IAEC No: 151(b)/RUBY/2012. An ectopic xenograft model in NOD-SCID (NOD.CB17-Prkdcscid/J) mice was used for evaluating the anti-cancer properties of Uttroside B. The animals required for this study were obtained from Animal Research Facility of Rajiv Gandhi Centre for Biotechnology and were fed with standard food pellets and autoclaved water ad libitum. Animal handling, tumor induction, drug treatment and tissue collection were performed in sterile conditions.\nEvaluation of the anticancer activity of Uttroside B, isolated from S. nigrum in human liver cancer (HepG2)-xenograft model: xenografts models were established in NOD-SCID mice as described in literature.^10 Male NOD-SCID (NOD.CB17-Prkdc^scid/J) mice of age 6-8 weeks were used for the study. Tumors were induced by subcutaneous injection of HepG2 cells (7×10^6 cells in 100 μL matrigel) in the lower right or left flank of mice and were allowed to grow for a period of two weeks to attain a size of approximately 50-100 mm^3 as measured by Vernier calipers. The mice were then randomly grouped into control and treatment group of 9 animals each. The treatment groups were injected intraperitoneally with Uttroside B (10 mg/kg doses thrice weekly) for one month. Tumor volume was measured every seven days to evaluate tumor growth and drug response. The animals were sacrificed at the end of the study and tumor samples were collected for histopathological and immunohistochemical analysis.\nHistopathology: The tissue cryo-sections were washed with PBS (5 min, 2 times) and distilled water for 5 min. Then the sections were stained with hematoxylin for 2 min. Excess stain was washed off and the slides were dipped in differentiation solution for 1-2 s. They were then kept in tap water for 10 min and 70% Isopropyl alcohol for 5 min respectively and were counter stained with eosin solution for 1 min. The sections were then transferred to 100% Isopropyl alcohol and kept for 2 min, cleared in xylene for 1 h and were mounted using DPX. Stained sections were observed using a light microscope and were photographed. The pathology of liver and tumor tissue sections were examined and verified by Dr. Sankar Sundaram, Professor of Pathology, Medical College, Thiruvananthapuram.\nImmunohistochemistry of xenograft tissue sections: Immunohistochemical analysis of various proteins in the xenograft tumor tissue sections was performed using the detection kit, as per manufacturer's protocol Super Sensitive™ Polymer-HRP IHC Detection System (Biogenex, Calif., USA). Paraformaldehyde-fixed OCT-embedded tissue sections were kept in PBS for 15 min. […]"}, "[3]": {"conditions": "10 mg/kg bw i.p. thrice weekly, four weeks"}}, "data": [{"smiles": "C[C@H](CC[C@@]1(O)O[C@H]2C[C@H]3[C@@H]4CC[C@H]5C[C@@H](O[C@@H]6O[C@H](CO)[C@H](O[C@@H]7O[C@H](CO)[C@@H](O)[C@H](O[C@@H]8OC[C@@H](O)[C@H](O)[C@H]8O)[C@H]7O[C@@H]7O[C@H](CO)[C@@H](O)[C@H](O)[C@H]7O)[C@H](O)[C@H]6O)CC[C@]5(C)[C@H]4CC[C@]3(C)[C@H]2[C@@H]1C)CO[C@@H]1O[C@H](CO)[C@@H](O)[C@H](O)[C@H]1O", "note": "[Uttroside B]", "values": [{"measurement": "IC50", "setting": "[1]", "value": 1500, "unit": "nM"}, {"measurement": "cleaved PARP expression in tumor sections (IHC)", "setting": "[2]; [3]", "value": "Significant upregulation in the expression of cleaved PARP"}, {"measurement": "externally visible tumor at end of treatment", "setting": "[2]; [3]", "value": "no tumor was visible externally"}, {"measurement": "histopathology (H&E) of tumor mass", "setting": "[2]; [3]", "value": "massive destruction of cells"}, {"measurement": "tumor volume vs control", "setting": "[2]; [3]", "value": "significantly low"}, {"measurement": "tissue level expression of LC3 (IHC)", "setting": "[2]; HepG2 xenograft tumor sections", "value": "very high"}, {"measurement": "tissue level expression of beclin-1 (IHC)", "setting": "[2]; HepG2 xenograft tumor sections", "value": "very high"}, {"measurement": "phosphorylation status of p70S6K and 4E-BP-1 in xenograft tumor tissue", "setting": "[2]; immunohistochemical staining, NOD-SCID mice", "value": "significant down-regulation in the phosphorylation status"}]}]}
